# Reference: PMC7104248, “Discovery of Taniborbactam (VNRX-5133): A Broad-Spectrum Serine- and Metallo-β-lactamase Inhibitor for Carbapenem-Resistant Bacterial Infections” (Journal of Medicinal Chemistry, 2019)
# Like-named read-outs stand apart in the source and are kept apart here.
# How the values were obtained:
# NDM-1 = NDM-1 (Klebsiella pneumoniae, UniProt C7C422); experiment: biochemical
# IMP-1 [1] = target: T1, IMP-1 (Serratia marcescens, UniProt P52699); experiment: β-lactamase inhibition assay, nitrocefin substrate; type: biochemical
# [2] = system: K. pneumoniae CDC-0361 (KPC-2, SHV-12, TEM-1); experiment: MIC, rescue of β-lactams in MDR clinical isolates; type: cell-based; conditions: Klebsiella pneumoniae
# [3] = system: P. aeruginosa CDC-0356 (KPC-2, PDC-42); experiment: MIC, rescue of β-lactams in MDR clinical isolates; type: cell-based; conditions: Pseudomonas aeruginosa
# [4] = system: K. pneumoniae UNT-065-1 expressing CTX-M-14; experiment: neutropenic mouse lung infection model; type: in vivo; conditions: neutropenic mice
# [5] = system: P. aeruginosa CDC-0457 (VIM); experiment: MIC, rescue of β-lactams in MDR clinical isolates; type: cell-based; conditions: Pseudomonas aeruginosa
# [6] = system: E. coli UNT-057-1 expressing CTX-M-15; experiment: mouse ascending urinary tract infection model; type: in vivo; conditions: mice, at day 7; BID s.c.; cefepime alone, cefepime/VNRX-5133 16:8, Caz/Avi 16:4 mg/kg/dose
# [7] = system: K. pneumoniae ATCC BAA 1705 (KPC-2); experiment: MIC, rescue of β-lactams in MDR clinical isolates; type: cell-based; conditions: Klebsiella pneumoniae
# [8] = system: K. pneumoniae CDC-0040 (VIM-27, CTX-M-15, SHV-11, OXA-1); experiment: MIC, rescue of β-lactams in MDR clinical isolates; type: cell-based; conditions: Klebsiella pneumoniae
# E. coli CDC-0452 (NDM) = experiment: MIC, rescue of β-lactams in MDR clinical isolates; type: cell-based; conditions: Escherichia coli
# K. pneumoniae (CTX-M-14) = experiment: MIC against the lung model strain; type: cell-based; conditions: Klebsiella pneumoniae
# E. coli (CTX-M-15) = experiment: MIC against the urinary tract model strain; type: cell-based; conditions: Escherichia coli
# [9] = system: K. pneumoniae CDC-0066 (OXA-232, OXA-9, TEM-1A, CTX-M-15, OXA-1); experiment: MIC, rescue of β-lactams in MDR clinical isolates; type: cell-based; conditions: Klebsiella pneumoniae
# [10] = system: E. coli CDC-0055 (NDM-1, CMY-6, OXA-1); experiment: MIC, rescue of β-lactams in MDR clinical isolates; type: cell-based; conditions: Escherichia coli
# VIM-2 = VIM-2 (Escherichia coli, UniProt Q5U7L7); experiment: β-lactamase inhibition assay, nitrocefin substrate; type: biochemical; conditions: in our hands
# [11] = system: K. pneumoniae expressing OXA-48; experiment: broth microdilution MIC, meropenem potentiation; type: cell-based; conditions: Klebsiella pneumoniae, read-out: MIC of meropenem alone
# [12] = system: K. pneumoniae expressing KPC-2; experiment: broth microdilution MIC, meropenem potentiation; type: cell-based; conditions: Klebsiella pneumoniae, read-out: MIC of meropenem alone
# [13] = system: K. pneumoniae expressing KPC-2 and VIM-4; experiment: broth microdilution MIC, meropenem potentiation; type: cell-based; conditions: Klebsiella pneumoniae, read-out: MIC of meropenem alone
# [14] = system: P. aeruginosa expressing VIM-2; experiment: broth microdilution MIC, meropenem potentiation; type: cell-based; conditions: Pseudomonas aeruginosa, read-out: MIC of meropenem alone
# [15] = system: human primary renal proximal tubule cells; experiment: toxicity in renal proximal tubule cells; type: cell-based; conditions: tested up to 1000 μg/mL
# IMP-1 [16] = target: T1, IMP-1; conditions: read-out: IC50 IMP-1, literature value in parentheses; cited from earlier work
# [17] = system: E. aerogenes 188548 (AmpC); experiment: intrinsic antibacterial activity, MIC; type: cell-based; conditions: Klebsiella aerogenes
# [18] = system: K. pneumoniae CI 09 (W/T); experiment: intrinsic antibacterial activity, MIC; type: cell-based; conditions: Klebsiella pneumoniae
# [19] = preclinical toxicity evaluation
# Source text: NCT03840148 at ClinicalTrials.gov).
# Factor Xa = target: T2, Factor Xa (Homo sapiens, UniProt P00742); experiment: selectivity panel at 100 μM; type: biochemical
# T2 construct: serine proteases (i.e., cathepsin G, chymotrypsin, Factor Xa, trypsin, and neutrophil elastase 2)
# Source text: (§1) The panel included serine proteases (i.e., cathepsin G, chymotrypsin, Factor Xa, trypsin, and neutrophil elastase 2), metalloproteinases (MMP-1, -2, -3, and -9), cytochrome P450s (1A2, 2C9, 2C19, 2D6, and 3A4), and the hERG potassium channel.
# MMP-2 = MMP-2 (Homo sapiens, UniProt P08253); experiment: selectivity panel at 100 μM; type: biochemical
# Source text: as §1
# MMP-1 = MMP-1 (Homo sapiens, UniProt P03956); experiment: selectivity panel at 100 μM; type: biochemical
# Source text: as §1
# cathepsin G = cathepsin G (Homo sapiens, UniProt P08311); experiment: selectivity panel at 100 μM; type: biochemical
# Source text: as §1
# MMP-3 = MMP-3 (Homo sapiens, UniProt P08254); experiment: selectivity panel at 100 μM; type: biochemical
# Source text: as §1
# MMP-9 = MMP-9 (Homo sapiens, UniProt P14780); experiment: selectivity panel at 100 μM; type: biochemical
# Source text: as §1
# neutrophil elastase 2 = neutrophil elastase 2 (Homo sapiens, UniProt P08246); experiment: selectivity panel at 100 μM; type: biochemical
# Source text: as §1
# [20] = system: panel of 50 human enzymes and receptors; experiment: selectivity panel at 100 μM
# Source text: as §1
# hERG potassium channel = hERG potassium channel (Homo sapiens, UniProt Q12809); experiment: selectivity panel at 100 μM
# Source text: as §1
# [21] = system: 14 Gram-negative pathogens expressing class B enzymes (VIM-1, VIM-2, VIM-4, NDM-1); type: cell-based; conditions: 14 MBL-producing strains
# E. coli 25922 (W/T) = experiment: intrinsic antibacterial activity, MIC; type: cell-based; conditions: Escherichia coli
# [22] = system: E. cloacae 144200 (p99 AmpC); experiment: intrinsic antibacterial activity, MIC; type: cell-based; conditions: Enterobacter cloacae
# CphA = conditions: read-out: IC50 subclass B2 MBL CphA; cited from earlier work
# S. aureus 29213 (W/T) = experiment: intrinsic antibacterial activity, MIC; type: cell-based; conditions: Staphylococcus aureus
# chymotrypsin = experiment: selectivity panel at 100 μM; type: biochemical, human
# Source text: as §1
# trypsin = experiment: selectivity panel at 100 μM; type: biochemical, human
# Source text: as §1
# [23] = system: P. aeruginosa Ps296 (AmpC, VIM-2, TEM-1); experiment: intrinsic antibacterial activity, MIC; type: cell-based; conditions: Pseudomonas aeruginosa
# [24] = system: K. pneumoniae 11978 (OXA-48); experiment: intrinsic antibacterial activity, MIC; type: cell-based; conditions: Klebsiella pneumoniae
# [25] = system: E. coli J53 (SHV5, AmpC, TEM-1); experiment: intrinsic antibacterial activity, MIC; type: cell-based; conditions: Escherichia coli
# S. aureus 33591 (MRSA) = experiment: intrinsic antibacterial activity, MIC; type: cell-based; conditions: Staphylococcus aureus
# [26] = system: P. aeruginosa 27853 (W/T); experiment: intrinsic antibacterial activity, MIC; type: cell-based; conditions: Pseudomonas aeruginosa
# [27] = system: K. pneumoniae A-1797 (KPC-2, VIM-4, CMY-4); experiment: microbe, parasite or virus in culture; type: cell-based; conditions: Klebsiella pneumoniae
# cytochrome P450 2D6 = cytochrome P450 2D6 (Homo sapiens, UniProt P10635); experiment: selectivity panel at 100 μM; type: in vitro ADME
# Source text: as §1
# cytochrome P450 1A2 = cytochrome P450 1A2 (Homo sapiens, UniProt P05177); experiment: selectivity panel at 100 μM; type: in vitro ADME
# Source text: as §1
# cytochrome P450 3A4 = cytochrome P450 3A4 (Homo sapiens, UniProt P08684); experiment: selectivity panel at 100 μM; type: in vitro ADME
# Source text: as §1
# cytochrome P450 2C19 = cytochrome P450 2C19 (Homo sapiens, UniProt P33261); experiment: selectivity panel at 100 μM; type: in vitro ADME
# Source text: as §1
# cytochrome P450 2C9 = cytochrome P450 2C9 (Homo sapiens, UniProt P11712); experiment: selectivity panel at 100 μM; type: in vitro ADME
# Source text: as §1
# [28] = system: K. pneumoniae UMM (SHV5, KPC-2, TEM-1); experiment: intrinsic antibacterial activity, MIC; type: cell-based; conditions: Klebsiella pneumoniae
# L1 = system: L1; parameters: method as in PMID 31454231; conditions: cited from earlier work
# OXA-48 = OXA-48 (Klebsiella pneumoniae, UniProt Q6XEC0); conditions: read-out: IC50 OXA-48, literature value in parentheses; cited from earlier work
# Sequence of NDM-1 (C7C422 29-270 limits assumed): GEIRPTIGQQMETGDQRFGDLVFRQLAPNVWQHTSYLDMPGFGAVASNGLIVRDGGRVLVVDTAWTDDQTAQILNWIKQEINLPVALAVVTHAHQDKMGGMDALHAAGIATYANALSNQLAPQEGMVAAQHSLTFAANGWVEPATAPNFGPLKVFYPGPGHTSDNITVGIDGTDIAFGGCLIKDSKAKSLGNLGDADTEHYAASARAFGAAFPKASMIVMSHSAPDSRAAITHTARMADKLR
# T1 sequence (P52699 19-246 limits assumed): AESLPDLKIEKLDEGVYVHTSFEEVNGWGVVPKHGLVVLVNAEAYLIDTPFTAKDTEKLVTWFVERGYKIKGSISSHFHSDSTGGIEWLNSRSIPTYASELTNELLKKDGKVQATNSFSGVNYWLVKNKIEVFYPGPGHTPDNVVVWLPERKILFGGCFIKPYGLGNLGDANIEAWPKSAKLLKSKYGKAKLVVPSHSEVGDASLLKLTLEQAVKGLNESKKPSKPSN
# Sequence of MMP-9 (P14780 94-707): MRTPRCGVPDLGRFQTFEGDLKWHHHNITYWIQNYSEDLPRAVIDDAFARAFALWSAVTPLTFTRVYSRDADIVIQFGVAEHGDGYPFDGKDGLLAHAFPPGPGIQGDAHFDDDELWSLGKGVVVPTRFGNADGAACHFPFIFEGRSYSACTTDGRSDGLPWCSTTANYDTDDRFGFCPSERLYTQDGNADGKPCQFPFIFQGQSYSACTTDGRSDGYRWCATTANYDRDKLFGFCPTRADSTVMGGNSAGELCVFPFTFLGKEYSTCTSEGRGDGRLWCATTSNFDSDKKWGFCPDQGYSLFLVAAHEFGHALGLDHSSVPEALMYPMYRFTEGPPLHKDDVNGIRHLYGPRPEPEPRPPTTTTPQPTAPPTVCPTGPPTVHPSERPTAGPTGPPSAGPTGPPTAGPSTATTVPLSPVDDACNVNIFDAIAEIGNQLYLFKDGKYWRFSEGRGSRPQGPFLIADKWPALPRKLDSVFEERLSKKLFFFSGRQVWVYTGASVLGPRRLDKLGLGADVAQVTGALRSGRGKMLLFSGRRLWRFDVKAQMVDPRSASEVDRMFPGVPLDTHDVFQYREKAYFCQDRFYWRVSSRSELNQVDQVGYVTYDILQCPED
# Sequence of neutrophil elastase 2 (P08246 30-267): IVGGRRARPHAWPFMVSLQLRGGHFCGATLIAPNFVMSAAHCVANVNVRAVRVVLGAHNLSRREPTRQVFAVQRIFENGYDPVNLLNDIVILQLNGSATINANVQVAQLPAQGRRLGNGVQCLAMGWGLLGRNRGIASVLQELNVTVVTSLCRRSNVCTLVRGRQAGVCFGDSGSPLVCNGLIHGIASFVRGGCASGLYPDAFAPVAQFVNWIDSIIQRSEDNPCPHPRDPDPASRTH
# Sequence of hERG potassium channel (Q12809 whole entry): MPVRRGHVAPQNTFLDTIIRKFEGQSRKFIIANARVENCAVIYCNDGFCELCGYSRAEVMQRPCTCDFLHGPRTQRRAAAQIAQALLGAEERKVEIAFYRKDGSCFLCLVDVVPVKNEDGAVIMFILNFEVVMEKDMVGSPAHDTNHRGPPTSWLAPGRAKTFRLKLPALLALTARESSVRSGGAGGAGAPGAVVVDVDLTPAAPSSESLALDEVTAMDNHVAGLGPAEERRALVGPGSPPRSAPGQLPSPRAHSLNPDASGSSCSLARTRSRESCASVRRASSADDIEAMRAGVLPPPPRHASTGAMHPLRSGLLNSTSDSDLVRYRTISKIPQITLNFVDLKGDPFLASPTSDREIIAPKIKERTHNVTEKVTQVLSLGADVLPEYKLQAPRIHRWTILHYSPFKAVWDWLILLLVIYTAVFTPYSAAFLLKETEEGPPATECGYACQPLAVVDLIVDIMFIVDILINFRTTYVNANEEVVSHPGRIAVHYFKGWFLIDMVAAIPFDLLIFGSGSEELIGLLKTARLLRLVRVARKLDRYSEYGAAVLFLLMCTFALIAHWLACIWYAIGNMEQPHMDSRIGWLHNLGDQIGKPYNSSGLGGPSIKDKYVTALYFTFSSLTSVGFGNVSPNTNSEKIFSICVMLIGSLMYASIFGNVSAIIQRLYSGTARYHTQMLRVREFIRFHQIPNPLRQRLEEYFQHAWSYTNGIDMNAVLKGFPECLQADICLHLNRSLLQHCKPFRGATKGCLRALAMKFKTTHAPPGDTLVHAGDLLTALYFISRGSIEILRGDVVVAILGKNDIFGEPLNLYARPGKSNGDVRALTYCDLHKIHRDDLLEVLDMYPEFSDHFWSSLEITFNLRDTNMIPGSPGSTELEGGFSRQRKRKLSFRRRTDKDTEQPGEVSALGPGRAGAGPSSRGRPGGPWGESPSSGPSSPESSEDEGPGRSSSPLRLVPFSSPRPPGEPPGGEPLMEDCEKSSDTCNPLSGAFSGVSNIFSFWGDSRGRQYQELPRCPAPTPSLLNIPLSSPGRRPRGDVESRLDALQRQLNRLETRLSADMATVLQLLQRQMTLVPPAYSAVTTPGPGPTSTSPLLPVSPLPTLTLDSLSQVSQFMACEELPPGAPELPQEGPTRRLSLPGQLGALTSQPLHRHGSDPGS
# Sequence of cathepsin G (P08311 21-255): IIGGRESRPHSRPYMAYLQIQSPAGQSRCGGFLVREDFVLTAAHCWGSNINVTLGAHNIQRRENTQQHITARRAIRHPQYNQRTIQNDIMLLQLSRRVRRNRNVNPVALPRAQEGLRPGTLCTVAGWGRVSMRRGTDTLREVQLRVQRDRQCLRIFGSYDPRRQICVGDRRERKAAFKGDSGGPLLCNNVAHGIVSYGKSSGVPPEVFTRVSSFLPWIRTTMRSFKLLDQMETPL
# Sequence of cytochrome P450 2D6 (P10635 whole entry): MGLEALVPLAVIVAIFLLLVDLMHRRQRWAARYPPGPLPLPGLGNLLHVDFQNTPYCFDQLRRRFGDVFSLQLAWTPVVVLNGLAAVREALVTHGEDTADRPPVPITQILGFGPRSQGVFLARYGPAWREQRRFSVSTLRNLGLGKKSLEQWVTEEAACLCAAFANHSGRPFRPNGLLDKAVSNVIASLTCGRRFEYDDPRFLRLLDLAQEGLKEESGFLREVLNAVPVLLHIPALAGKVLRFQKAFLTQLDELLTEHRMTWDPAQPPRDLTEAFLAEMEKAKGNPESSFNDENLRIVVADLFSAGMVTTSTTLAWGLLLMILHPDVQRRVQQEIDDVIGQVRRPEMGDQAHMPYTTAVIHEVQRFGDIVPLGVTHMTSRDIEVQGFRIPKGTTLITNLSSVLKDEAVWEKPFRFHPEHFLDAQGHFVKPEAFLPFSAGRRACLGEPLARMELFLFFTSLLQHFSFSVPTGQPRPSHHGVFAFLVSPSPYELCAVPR
# T2 sequence (P00742 235-488 limits assumed): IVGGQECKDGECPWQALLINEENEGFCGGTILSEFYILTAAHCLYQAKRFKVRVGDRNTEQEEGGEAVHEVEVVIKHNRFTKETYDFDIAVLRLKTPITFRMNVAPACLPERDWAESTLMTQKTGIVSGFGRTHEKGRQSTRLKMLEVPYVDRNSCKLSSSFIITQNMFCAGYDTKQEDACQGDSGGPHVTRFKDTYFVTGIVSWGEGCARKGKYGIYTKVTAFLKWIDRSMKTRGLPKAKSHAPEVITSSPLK
# T2 sequence (P00742 41-179 partner limits assumed): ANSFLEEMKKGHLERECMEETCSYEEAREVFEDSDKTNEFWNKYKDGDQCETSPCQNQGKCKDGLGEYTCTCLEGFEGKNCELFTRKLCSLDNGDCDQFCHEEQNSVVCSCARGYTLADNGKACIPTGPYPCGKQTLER
# Sequence of MMP-1 (P03956 100-469): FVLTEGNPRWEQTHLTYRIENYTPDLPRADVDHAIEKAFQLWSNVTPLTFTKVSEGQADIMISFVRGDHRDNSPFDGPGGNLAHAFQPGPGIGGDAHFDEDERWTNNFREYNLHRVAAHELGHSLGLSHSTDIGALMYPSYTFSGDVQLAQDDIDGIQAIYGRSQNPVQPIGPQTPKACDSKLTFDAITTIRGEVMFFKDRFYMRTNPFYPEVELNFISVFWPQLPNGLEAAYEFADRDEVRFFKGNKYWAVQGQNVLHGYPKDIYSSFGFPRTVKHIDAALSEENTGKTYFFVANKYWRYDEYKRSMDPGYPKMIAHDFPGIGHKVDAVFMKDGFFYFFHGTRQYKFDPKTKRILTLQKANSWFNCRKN
# Sequence of cytochrome P450 3A4 (P08684 whole entry): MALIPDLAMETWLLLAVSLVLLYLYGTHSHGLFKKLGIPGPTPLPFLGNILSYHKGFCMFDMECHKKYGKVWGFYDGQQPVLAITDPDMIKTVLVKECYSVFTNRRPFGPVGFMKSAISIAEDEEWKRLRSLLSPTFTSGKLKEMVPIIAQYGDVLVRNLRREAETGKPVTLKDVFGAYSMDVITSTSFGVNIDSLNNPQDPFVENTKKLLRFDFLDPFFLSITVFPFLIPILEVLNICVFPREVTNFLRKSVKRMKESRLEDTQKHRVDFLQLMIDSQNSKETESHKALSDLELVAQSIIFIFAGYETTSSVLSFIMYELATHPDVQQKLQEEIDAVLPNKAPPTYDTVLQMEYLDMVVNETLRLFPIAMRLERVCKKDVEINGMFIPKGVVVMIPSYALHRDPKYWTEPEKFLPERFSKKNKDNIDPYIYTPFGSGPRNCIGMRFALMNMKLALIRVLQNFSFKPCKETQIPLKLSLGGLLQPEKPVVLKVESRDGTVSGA
# Sequence of MMP-3 (P08254 100-477): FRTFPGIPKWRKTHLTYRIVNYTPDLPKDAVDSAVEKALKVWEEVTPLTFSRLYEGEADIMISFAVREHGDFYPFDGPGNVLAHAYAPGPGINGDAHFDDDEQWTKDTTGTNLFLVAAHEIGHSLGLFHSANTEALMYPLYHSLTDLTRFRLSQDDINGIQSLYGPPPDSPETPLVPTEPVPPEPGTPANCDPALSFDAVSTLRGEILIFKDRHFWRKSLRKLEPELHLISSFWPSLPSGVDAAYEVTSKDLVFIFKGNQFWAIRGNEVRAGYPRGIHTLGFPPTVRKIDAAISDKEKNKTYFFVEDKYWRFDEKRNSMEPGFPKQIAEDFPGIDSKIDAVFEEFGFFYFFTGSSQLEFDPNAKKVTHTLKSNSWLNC
smiles,measurement,setting,value
NC(=O)[C@@H]1CC[C@@H]2CN1C(=O)N2OS(=O)(=O)O [avibactam],IC50,NDM-1,> 100 µM
same,IC50,IMP-1 [1],> 100 µM
CO/N=C(\C(=O)N[C@@H]1C(=O)N2C(C(=O)[O-])=C(C[N+]3(C)CCCC3)CS[C@H]12)c1csc(N)n1 [cefepime],MIC,[2]; read-out: FEP MIC,32 µg/mL
same,MIC,[3]; read-out: FEP MIC,> 128 µg/mL
same,log10 CFU/lung,"[4]; at 24 h, cefepime alone 32, cefepime/VNRX-5133 32:16, Caz/Avi 32:8 mg/kg s.c. single dose",9.27 ± 0.21 log10 CFU/lung
same,reduction in viable bacterial counts in lung tissue,"[4]; single subcutaneous dose, cefepime 32 mg/kg alone or cefepime/20 32 and 16 mg/kg, 24 h",not effective
same,MIC,[5]; read-out: FEP MIC,16 µg/mL
same,log10 CFU/kidney,[6],7.25 ± 0.16 log10 CFU/kidney
same,MIC,"[7]; BAA1705, read-out: FEP MIC",16 µg/mL
same,MIC,[8]; read-out: FEP MIC,> 128 µg/mL
same,MIC,E. coli CDC-0452 (NDM); read-out: FEP MIC,64 µg/mL
same,MIC,K. pneumoniae (CTX-M-14),64 µg/mL
same,MIC,E. coli (CTX-M-15),128 µg/mL
same,MIC,[9]; read-out: FEP MIC,> 128 µg/mL
same,MIC,[10]; read-out: FEP MIC,128 µg/mL
CC(=O)N[C@H]1Cc2cccc(C(=O)O)c2OB1O [compound 1],"inhibition of the MBL VIM-2, in words",VIM-2,micromolar levels
C[C@@H](O)[C@H]1C(=O)N2C(C(=O)O)=C(S[C@@H]3CN[C@H](C(=O)N(C)C)C3)[C@H](C)[C@H]12 [meropenem],MIC,[11],≥ 32 µg/mL
same,MIC,[12],≥ 32 µg/mL
same,MIC,[13],≥ 32 µg/mL
same,MIC,[14],≥ 32 µg/mL
O=C(O)[C@H]1/C(=C/CO)O[C@@H]2CC(=O)N21 [clavulanic acid],IC50,NDM-1,> 100 µM
same,IC50,IMP-1 [1],> 100 µM
CCN1CCN(C(=O)N[C@@H](C(=O)N[C@@H]2C(=O)N3[C@@H]2SC(C)(C)[C@@H]3C(=O)O)c2ccccc2)C(=O)C1=O [piperacillin],MIC,[2]; read-out: PIP MIC,> 128 µg/mL
same,MIC,[3]; read-out: PIP MIC,> 128 µg/mL
same,MIC,[5]; read-out: PIP MIC,64 µg/mL
same,MIC,"[7]; BAA1705, read-out: PIP MIC",> 128 µg/mL
same,MIC,[8]; read-out: PIP MIC,> 128 µg/mL
same,MIC,E. coli CDC-0452 (NDM); read-out: PIP MIC,> 128 µg/mL
same,MIC,[9]; read-out: PIP MIC,> 128 µg/mL
same,MIC,[10]; read-out: PIP MIC,> 128 µg/mL
O=C(O)C[C@@H]1CC[C@H](NC(=O)Cc2cccs2)B(O)O1 [vaborbactam],IC50,NDM-1,> 100 µM
same,IC50,IMP-1 [1],> 100 µM
"NCCN[C@H]1CC[C@H](CC(=O)N[C@H]2Cc3cccc(C(=O)O)c3OB2O)CC1 [compound 20, (3R)-3-(2-{trans-4-[(2-Aminoethyl)amino]cyclohexyl}acetamido)-2-hydroxy-3,4-dihydro-2H-1,2-benzoxaborinine-8-carboxylic Acid]",toxicity in human primary proximal tubule cells,[15],No toxicity
same,IC50,IMP-1 [16],2.51 µM
same,MIC,[17],> 128 µg/mL
same,MIC,[18],> 128 µg/mL
same,safety profile in the preclinical toxicity evaluation,[19],clean safety profile
same,activity against Factor Xa,Factor Xa,no significant activity
same,activity against MMP-2,MMP-2,no significant activity
same,activity against MMP-1,MMP-1,no significant activity
same,activity against cathepsin G,cathepsin G,no significant activity
same,activity against MMP-3,MMP-3,no significant activity
same,activity against MMP-9,MMP-9,no significant activity
same,activity against neutrophil elastase 2,neutrophil elastase 2,no significant activity
same,activity against panel of 50 human enzymes and receptors,[20],no significant activity
same,activity against hERG potassium channel,hERG potassium channel,no significant activity
same,decrease in the MIC of cefepime on addition of BLI,[21],≥ 512 fold
same,MIC,E. coli 25922 (W/T),> 128 µg/mL
same,MIC,[22],> 128 µg/mL
same,IC50,CphA,~2.51 µM
same,MIC,S. aureus 29213 (W/T),> 128 µg/mL
same,activity against chymotrypsin,chymotrypsin,no significant activity
same,activity against trypsin,trypsin,no significant activity
same,MIC,[23],> 128 µg/mL
same,MIC,[24],> 128 µg/mL
same,MIC,[25],> 128 µg/mL
same,MIC,S. aureus 33591 (MRSA),> 128 µg/mL
same,MIC,[26],> 128 µg/mL
same,MIC,[27],> 128 µg/mL
same,activity against cytochrome P450 2D6,cytochrome P450 2D6,no significant activity
same,activity against cytochrome P450 1A2,cytochrome P450 1A2,no significant activity
same,activity against cytochrome P450 3A4,cytochrome P450 3A4,no significant activity
same,activity against cytochrome P450 2C19,cytochrome P450 2C19,no significant activity
same,activity against cytochrome P450 2C9,cytochrome P450 2C9,no significant activity
same,MIC,[28],> 128 µg/mL
same,inhibition of subclass B3 MBL L1,L1,did not inhibit
same,IC50,OXA-48,0.54 µM
C[C@]1(Cn2ccnn2)[C@H](C(=O)O)N2C(=O)C[C@H]2S1(=O)=O [tazobactam],IC50,NDM-1,> 100 µM
same,IC50,IMP-1 [1],> 100 µM
NCc1ccc(CC(=O)N[C@H]2Cc3cccc(C(=O)O)c3OB2O)cc1 [compound 3],"inhibition of the MBL VIM-2, in words",VIM-2,micromolar levels
